Assay results as given in patent publication US20110112308A1 (NOVARTIS AG, priority 2006, published 2011).
In brackets after ≈: the same amount, converted by molar mass. Each block holds one compound with its values, some of them ahead of it.

Assays:
Format in all cases: physicochemical
[1] = Solubility, 24-hour equilibration at room temperature; conditions: organic solvent or mixture, thermodynamic from solid
Description: Aqueous Solubility: A carefully weighted amount (20-50 mg) of sample is dissolved in 1 ml of solvent with 24-hour equilibration at room temperature. The solubility was determined either gravimetrically or by UV-VIS spectrometry. The pH of the clear solution was also measured. However, the difficulty of determining salt solubilities in water should be stressed, since upon dissolution dissociation to the free form is possible, which affects both the solubility and the pH. It's not unlikely that attempts to make solutions of a salt at a concentration well below the reported solubility of the salt to be unsuccessful (for a full discussion see: M. Pudipeddi, A. T. M. Serajuddin, D. J. W. Grant, and P. H. Stahl in “Handbook of Pharmaceutical Salts Properties Selection and Use” page 27 and references therein).

[2] = pH of saturated solution or 1% suspension in water; conditions: room temperature
Description: pH Value: The pH at room temperature of a saturated solution or 1% suspension of the drug substance in water was recorded.

[3] = Intrinsic dissolution rate, rotation disk method; conditions: for Intrinsic Dissolution Rate: 37° C., 200 r.p.m.
Description: Intrinsic Dissolution: […] […] Pellets of the other salts remained intact for at least several minutes enabling the determination of the intrinsic dissolution rate. Dissolution rate studies were performed using the rotation disk method ([…] Instrument). A single rotation speed of 200 r.p.m. was used to dissolve drug substance into a 500 mL vessel at 37° C. The solution was continuously pumped through a UV cell measurement and returned to the dissolution vessel.

[4] = Solution stability (HPLC); conditions: for stability characteristics, in words: both in solution and in the solid state; for Unstressed (% Area): unstressed baseline of the stability study
Description: (§1) All samples were prepared/diluted to a concentration of 0.2 mg/mL in methanol prior to analysis by HPLC. A freshly prepared sample of each salt was used as the reference standard for external standard calibration analysis.

Solid-state stability = conditions: for Bulk stability (XRPD): 1 week
Description: as §1

[5] = Stability of mixtures with excipients; conditions: for stability with all excipient mixtures tested, in words: after 2 weeks at 50° C./75% r.h.
Description: as §1

[6] = pH of saturated solution or 1% suspension in water; conditions: In pH = 6.8 buffer
[7] = Water, free base pellet disintegrated, not true intrinsic rate
[8] = 2 mg/mL in 100 mM lactate buffer, pH 3.5
[9] = 2 mg/mL in methanol, 1 week at 50° C.
[10] = 2 mg/mL in water, 1 week at 50° C.
[11] = 2 mg/mL, 100 mM lactate buffer pH 3.5, 1 week at 50° C., external standard
[12] = 2% in 0.5% HPMC 4000, 1 day at RT
[13] = 2% in 0.5% Klucel HF, 1 day at RT
[14] = 2% in 0.8% Tween 80, 1 day at RT
[15] = 5% solution, 1 day at RT (diluted 1:100 in pH 6.8 buffer)
[16] = Bulk stability, 2 weeks, 50° C.
[17] = Bulk stability, 2 weeks, 50° C./20% water
[18] = Bulk stability, 2 weeks, 50° C./75% r.h.
[19] = Light study, 1200 kLux (300-800 nm)
[20] = Mixture 1: 50% PVP + 50% Crospovidone, 50° C./75% r.h., 2 weeks
[21] = Mixture 2: 50% Starch 1500 + 5% MCC 102, 50° C./75% r.h., 2 weeks
[22] = Mixture 3: 5% PVP + 5% Crospovidone + 10% Starch 1500 + 80% MCC 102, 50° C./75% r.h., 2 weeks
[23] = Mixture 4: 99% Lactose + 1% BHT/BHA, 50° C./75% r.h., 2 weeks
[24] = Mixture 5: 99% Mannitol + 1% BHT/BHA, 50° C./75% r.h., 2 weeks
[25] = Mixture 6: 50% Mannitol + 47% HPCLH21 + 1% BHT/BHA + 2% Magnesium Stearate, 50° C./75% r.h., 2 weeks
[26] = Mixture 7: 50% Cetyl Alcohol + 49% HPCLH21 + 1% Magnesium Stearate, 50° C./75% r.h., 2 weeks
[27] = Mixture 8: 100% PEG 3350, 50° C./75% r.h., 2 weeks
[28] = 2 mg/mL, 100 mM lactate buffer pH 3.5, 1 week at 50° C.

- solubility at 24 h ([1]; ethyl acetate, 25 °C): 5600 µg/mL (≈ 16 mM)
- solubility at 24 h ([1]; Acetone, approx. at 25° C.): 6500 µg/mL (≈ 18.6 mM)
- solubility at 24 h ([1]; Ethanol, approx. at 25° C.): 1500 µg/mL (≈ 4.29 mM)
- solubility at 24 h ([1]; Methanol, approx. at 25° C.): 2300 µg/mL (≈ 6.58 mM)
- pH of saturated solution [2]: 8.7
- Intrinsic Dissolution Rate [3, 7]: 0.15 mg min^−1 cm^−2
- pH of initial mixture [4, 8]: 3.60
- assay [4, 9]: [100.2]
- pH of initial mixture ([4]; 2 mg/mL in water): 9.59
- CL (appearance) [4, 10]: A↓
- assay [4, 10]: [98.73]
- assay [4, 11]: [97.21]
- assay ([4]; 2% in 0.5% CMC, 1 day at RT): [98.07]
- assay [4, 12]: [100.4]
- assay [4, 13]: [99.28]
- assay [4, 14]: [98.91]
- CL (appearance) [4, 15]: A↓
- assay [4, 15]: [100.4]
- stability characteristics, in words [4]: very good stability
- Unstressed (% Area) [4]: 99.41% Area
- Bulk stability (XRPD) (Solid-state stability; 80° C.): Changed to mod. C
- Bulk stability (XRPD) (Solid-state stability; 80° C./75% r.h.): no change
- assay (Solid-state stability; [16]): [97.76]
- assay (Solid-state stability; [17]): [99.48]
- assay (Solid-state stability; [18]): [98.61]
- CL (appearance) (Solid-state stability; [19]): B (B = slight discoloration)
- assay (Solid-state stability; [19]): [99.39]
- % DS (drug substance) [5, 20]: 98.8 % area
- % DS (drug substance) [5, 21]: 99.4 % area
- % DS (drug substance) [5, 22]: 99.3 % area
- % DS (drug substance) [5, 23]: 99.4 % area
- % DS (drug substance) [5, 24]: 99.2 % area
- % DS (drug substance) [5, 25]: 99.4 % area
- % DS (drug substance) [5, 26]: 99.5 % area
- % DS (drug substance) [5, 27]: 98.6 % area
- % DS (drug substance) ([5]; Standard, freshly prepared): 99.5 % area
- stability with all excipient mixtures tested, in words [5]: very good stability
- pH of saturated solution [6]: 6.91
Compound: Cc1[nH]c2ccccc2c1CCNCc1ccc(/C=C/C(=O)NO)cc1 [Free base, N-hydroxy-3-[4-[[[2-(2-methyl-1H-indol-3-yl)ethyl]amino]methyl]phenyl]-2E-2-propenamide]

- pH of saturated solution [2]: 6.07
- intrinsic dissolution (rate), in words [3]: good
- Intrinsic Dissolution Rate ([3]; HCl 0.1N): 1.16 mg min^−1 cm^−2
- Intrinsic Dissolution Rate [3, 7]: 0.38 mg min^−1 cm^−2
- pH of initial mixture [4, 8]: 3.58
- % DP (total degradation products) [4, 9]: 0.86 % area
- CL (appearance) [4, 9]: A↓
- assay [4, 9]: [100.5]
- pH of initial mixture ([4]; 2 mg/mL in water): 6.82
- % DP (total degradation products) [4, 10]: 1.21 % area
- CL (appearance) [4, 10]: A↓
- assay [4, 10]: [98.91]
- % DP (total degradation products) [4, 28]: 1.53 % area
- CL (appearance) [4, 28]: A↓*
- assay [4, 11]: [96.89]
- % DP (total degradation products) ([4]; 2% in 0.5% CMC, 1 day at RT): 0.62 % area
- CL (appearance) ([4]; 2% in 0.5% CMC, 1 day at RT): A↓↓
- assay ([4]; 2% in 0.5% CMC, 1 day at RT): [79.98]
- % DP (total degradation products) [4, 12]: 0.54 % area
- assay [4, 12]: [97.54]
- % DP (total degradation products) [4, 13]: 0.58 % area
- assay [4, 13]: [96.39]
- % DP (total degradation products) [4, 14]: 0.54 % area
- assay [4, 14]: [96.60]
- % DP (total degradation products) [4, 15]: 0.71 % area
- CL (appearance) [4, 15]: A↓
- assay [4, 15]: [98.39]
- stability characteristics, in words [4]: very good stability
- Unstressed (% Area) [4]: 99.62% Area
- Bulk stability (XRPD) (Solid-state stability; 80° C.): no change
- Bulk stability (XRPD) (Solid-state stability; 80° C./75% r.h.): no change
- % DP (total degradation products) (Solid-state stability; [16]): 0.84 % area
- assay (Solid-state stability; [16]): [99.48]
- % DP (total degradation products) (Solid-state stability; [17]): 1.61 % area
- assay (Solid-state stability; [17]): [97.07]
- % DP (total degradation products) (Solid-state stability; [18]): 1.36 % area
- assay (Solid-state stability; [18]): [97.66]
- % DP (total degradation products) (Solid-state stability; [19]): 0.82 % area
- assay (Solid-state stability; [19]): [100.4]
- % DP (total degradation products) [5, 20]: 1.2 % area
- % DS (drug substance) [5, 20]: 98.8 % area
- % DP (total degradation products) [5, 21]: 1.3 % area
- % DS (drug substance) [5, 21]: 98.7 % area
- % DP (total degradation products) [5, 22]: 1.3 % area
- % DS (drug substance) [5, 22]: 98.7 % area
- % DP (total degradation products) [5, 23]: 1.3 % area
- % DS (drug substance) [5, 23]: 98.7 % area
- % DP (total degradation products) [5, 24]: 1.3 % area
- % DS (drug substance) [5, 24]: 98.7 % area
- % DP (total degradation products) [5, 25]: 1.3 % area
- % DS (drug substance) [5, 25]: 98.7 % area
- % DP (total degradation products) [5, 26]: 1.3 % area
- % DS (drug substance) [5, 26]: 98.7 % area
- % DP (total degradation products) [5, 27]: 1.3 % area
- % DS (drug substance) [5, 27]: 98.7 % area
- % DP (total degradation products) ([5]; Standard, freshly prepared): 0.6 % area
- % DS (drug substance) ([5]; Standard, freshly prepared): 99.4 % area
- stability with all excipient mixtures tested, in words [5]: very good stability
- pH of saturated solution [6]: 5.57
Compound: 2:1 L-tartarate salt of N-hydroxy-3-[4-[[[2-(2-methyl-1H-indol-3-yl)ethyl]amino]methyl]phenyl]-2E-2-propenamide
